Structures are written as SMILES. Where a name gives a salt, the structure may show the parent alone.

One data set is described as follows: Human plasma stability (Protocols 1 and 2). The format is in vitro ADME. The settings on record: Protocol 1; human plasma pH 7.4, 1 μM, 37° C., 2 h. The protocol:
Example B6: Human Plasma Stability
Studies were carried out in human plasma. All plasma was obtained from Bioreclamation and collected on sodium heparin. Plasma was adjusted to pH 7.4. A DMSO stock was first prepared for the test compound. An aliquot of the DMSO solution was dosed into 1 mL of plasma, which had been pre-warmed to 37° C., at a final test compound concentration of 1 μM. The vials were kept in a benchtop Thermomixer® for the duration of the experiment. Aliquots (100 μL) were taken at each time point (0, 15, 30, 60, and 120 minutes) and added to 96-well plates which had been pre-filled with 300 μL of acetonitrile. Samples were stored at 4° C. until the end of the experiment. After the final time point was sampled, the plate was mixed and then centrifuged at 3,000 rpm for 10 minutes. Aliquots of the supernatant were removed, diluted 1:1 into distilled water, and analyzed by LC-MS/MS. The peak area response ratio to internal standard (PARR) of the compound at 15, 30, 60 and 120 minutes was compared to the PARR at time 0 to determine the percent of test compound remaining at each time point. Half-lives were calculated using GraphPad software, fitting to a single-phase exponential decay equation.
Studies were carried out in plasma. Plasma was prepared under approval of IRB and IACUC on sodium heparin. The pH of plasma was monitored and used within the range of pH 7.4 to pH 8.0. DMSO stocks were prepared for the test compounds. Aliquots of the DMSO solutions were diluted to 0.05 mM by 0.05 mM Sodium phosphate buffer with 0.5% BSA. Then 10 μL of 0.05 mM solutions were dosed into 90 μL of plasma in duplicates (n=2), which had been pre-warmed to 37° C., at a final test compound concentration of 5 μM. The plates were kept in a 37° C. water bath for the duration of the experiment. At each time point (0, 5, 15, 30, 45, 60, and 120 minutes), 400 μL of acetonitrile was added into corresponding wells. After the final time point was sampled, the plates were shaken at the vibrator (IKA, MTS 2/4) for 10 min (600 rpm/min) and then centrifuged at 5594 g for 15 min (Thermo Multifuge×3R). Aliquots of the supernatant were removed, diluted 1:1 into distilled water, and analyzed by LC-MS/MS. The peak area response ratio to internal standard (PARR) of the compounds at 5, 15, 30, 45, 60, and 120 minutes was compared to the PARR at time 0 to determine the percent of test compound remaining at each time point. Half-lives were calculated using Excel software, fitting to a single-phase exponential decay equation.
As for `Cl.O=C(OCC12CCN(CC1)CC2)c1c[nH]c2cc3c(cc12)OCCO3` [Compound 30, Quinuclidin-4-ylmethyl 2,3-dihydro-6H-[1,4]dioxino[2,3-f]indole-8-carboxylate hydrochloride], the “% Remaining @ 2 h” value is recorded as 10%.

Still in this data set, the particulars now being: human, plasma, 2 h, 1 μM, pH 7.4.
Consider `O=C(OCC12CCN(CC1)CC2)c1c[nH]c2ccccc12` [Compound 1, quinuclidin-4-ylmethyl 1H-indole-3-carboxylate], for which the “% Remaining @ 2 h” value is given as 11%.
The same measure, in the same setting: next, `O=C(OCC12CCN(CC1)CC2)c1c[nH]c2ccc(F)cc12` [Compound 12, quinuclidin-4-ylmethyl 5-fluoro-1H-indole-3-carboxylate]: 31%; `O=C(OCC12CCN(CC1)CC2)c1c[nH]c2cc(O)ccc12` [Compound 14, quinuclidin-4-ylmethyl 6-hydroxy-1H-indole-3-carboxylate]: 26%; `COc1ccc2[nH]cc(C(=O)OCC34CCN(CC3)CC4)c2c1` [Compound 18, quinuclidin-4-ylmethyl 5-methoxy-1H-indole-3-carboxylate]: 5.8%.
The same measure, in the same setting: next, `Cc1ccc2[nH]cc(C(=O)OCC34CCN(CC3)CC4)c2c1` [Compound 20, quinuclidin-4-ylmethyl 5-methyl-1H-indole-3-carboxylate]: 14%.
As to `Cc1cccc2[nH]cc(C(=O)OCC34CCN(CC3)CC4)c12` [Compound 21, quinuclidin-4-ylmethyl 4-methyl-1H-indole-3-carboxylate], the “% Remaining @ 2 h” value stood at 83%.
Still for that read-out and setting: to `O=C(OCC12CCN(CC1)CC2)c1c[nH]c2cc(Br)ccc12` [Compound 22, quinuclidin-4-ylmethyl 6-bromo-1H-indole-3-carboxylate] belongs 58%; to `O=C(OCC12CCN(CC1)CC2)c1c[nH]c2ccc(Br)cc12` [Compound 23, quinuclidin-4-ylmethyl 5-bromo-1H-indole-3-carboxylate], 21%.
For the molecule `O=C(OCC12CCN(CC1)CC2)c1c[nH]c2cccc(Br)c12` [Compound 24, quinuclidin-4-ylmethyl 4-bromo-1H-indole-3-carboxylate], the “% Remaining @ 2 h” value was 89%.
Turning to `O=C(OCC12CCN(CC1)CC2)c1c[nH]c2cc(Cl)ccc12` [Compound 26, quinuclidin-4-ylmethyl 6-chloro-1H-indole-3-carboxylate], the “% Remaining @ 2 h” value stood at 65%.
As to `N#Cc1ccc2c(C(=O)OCC34CCN(CC3)CC4)c[nH]c2c1` [Compound 28, quinuclidin-4-ylmethyl 6-cyano-1H-indole-3-carboxylate], the “% Remaining @ 2 h” value amounted to 79%.
On the same count and under the same terms, to `COc1ccc2[nH]cc(C(=O)OCC34CCN(CC3)CC4)c2c1C` [Compound 34, quinuclidin-4-ylmethyl 5-methoxy-4-methyl-1H-indole-3-carboxylate] belongs 55%.
Same read-out and setting: next, `O=C(OCC12CCN(CC1)CC2)c1c[nH]c2cccc(Cl)c12` [Compound 35, quinuclidin-4-ylmethyl 4-chloro-1H-indole-3-carboxylate]: 56%; `COc1cccc2[nH]cc(C(=O)OCC34CCN(CC3)CC4)c12` [Compound 36, quinuclidin-4-ylmethyl 4-methoxy-1H-indole-3-carboxylate]: 2.5%.

Staying with this data set, now noted: human, plasma, pH 7.4.
For `COc1cc(C)c2c(C(=O)OCC34CCN(CC3)CC4)c[nH]c2c1` [Compound 37, quinuclidin-4-ylmethyl 6-methoxy-4-methyl-1H-indole-3-carboxylate], the T1/2 entry is “∞”.
On the same count and under the same terms, to `COc1cc(Cl)c2c(C(=O)OCC34CCN(CC3)CC4)c[nH]c2c1` [Compound 38, quinuclidin-4-ylmethyl 4-chloro-6-methoxy-1H-indole-3-carboxylate] belongs “∞”.
In turn, `COc1ccc2[nH]cc(C(=O)OCC34CCN(CC3)CC4)c2c1Cl` [Compound 39, quinuclidin-4-ylmethyl 4-chloro-5-methoxy-1H-indole-3-carboxylate] had a half-life at 5 μM of 42.7 min.
On to `COc1ccc2[nH]cc(C(=O)OCC34CCN(CC3)CC4)c2c1OC` [Compound 40, quinuclidin-4-ylmethyl 4,5-dimethoxy-1H-indole-3-carboxylate], for which the T1/2 entry was “∞”.
With `O=C(OCC12CCN(CC1)CC2)c1c[nH]c2cc(F)cc(Br)c12` [Compound 41, quinuclidin-4-ylmethyl 4-bromo-6-fluoro-1H-indole-3-carboxylate], the T1/2 result is on record as “∞”.
`O=C(OCC12CCN(CC1)CC2)c1c[nH]c2cc(Cl)cc(Br)c12` [Compound 42, quinuclidin-4-ylmethyl 4-bromo-6-chloro-1H-indole-3-carboxylate]: the half-life at 5 μM amounted to 172 min.
Consider `Cc1c(F)ccc2[nH]cc(C(=O)OCC34CCN(CC3)CC4)c12` [Compound 43, quinuclidin-4-ylmethyl 5-fluoro-4-methyl-1H-indole-3-carboxylate], for which the T1/2 result is “∞”.
The molecule `O=C(OCC12CCN(CC1)CC2)c1c[nH]c2cc(O)cc(Cl)c12` [Compound 46, quinuclidin-4-ylmethyl 4-chloro-6-hydroxy-1H-indole-3-carboxylate] displayed a half-life at 5 μM of 855 min.
For `COc1ccc2[nH]cc(C(=O)OCC34CCN(CC3)CC4)c2c1Br` [Compound 47, quinuclidin-4-ylmethyl 4-bromo-5-methoxy-1H-indole-3-carboxylate], the half-life at 5 μM came to 261 min.
Still for that read-out and setting: next, `COc1cc(Br)c2c(C(=O)OCC34CCN(CC3)CC4)c[nH]c2c1` [Compound 48, quinuclidin-4-ylmethyl 4-bromo-6-methoxy-1H-indole-3-carboxylate]: 58900 min.
Still for that read-out and setting: to `Cc1cc(Br)c2c(C(=O)OCC34CCN(CC3)CC4)c[nH]c2c1` [Compound 49, quinuclidin-4-ylmethyl 4-bromo-6-methyl-1H-indole-3-carboxylate] belongs 825 min.
Take `Cc1cc(Cl)cc2[nH]cc(C(=O)OCC34CCN(CC3)CC4)c12` [Compound 50, quinuclidin-4-ylmethyl 6-chloro-4-methyl-1H-indole-3-carboxylate]: the T1/2 result is “∞”.
The molecule `Cc1cc(C)c2c(C(=O)OCC34CCN(CC3)CC4)c[nH]c2c1` [Compound 54, quinuclidin-4-ylmethyl 4,6-dimethyl-1H-indole-3-carboxylate] displayed a half-life at 5 μM of 672 min.
On the same count and under the same terms, next, `Cc1cc2c(C(=O)OCC34CCN(CC3)CC4)c[nH]c2cc1O` [Compound 55, quinuclidin-4-ylmethyl 6-hydroxy-5-methyl-1H-indole-3-carboxylate]: 92.5 min.
The same measure, in the same setting: next, `COc1cc2[nH]cc(C(=O)OCC34CCN(CC3)CC4)c2cc1C` [Compound 56, quinuclidin-4-ylmethyl 6-methoxy-5-methyl-1H-indole-3-carboxylate]: 343 min; `Cc1cc(C#N)cc2[nH]cc(C(=O)OCC34CCN(CC3)CC4)c12` [Compound 60, quinuclidin-4-ylmethyl 6-cyano-4-methyl-1H-indole-3-carboxylate]: 1380 min; `O=C(OCC12CCN(CC1)CC2)c1c[nH]c2cccc(C3CC3)c12` [Compound 61, Quinuclidin-4-ylmethyl 4-cyclopropyl-1H-indole-3-carboxylate]: 838 min.
On the same count and under the same terms, next, `O=C(OCC12CCN(CC1)CC2)c1c[nH]c2ccc(F)c(Cl)c12` [Compound 62, quinuclidin-4-ylmethyl 4-chloro-5-fluoro-1H-indole-3-carboxylate hydrochloride]: 354 min.

The data set is the same for the next values; noted with them: human; Protocol 2; plasma pH 7.4 to 8.0, 5 μM, 37° C.; read-out: T1/2.
In the case of `Cc1ccc2c(C(=O)OCC34CCN(CC3)CC4)c[nH]c2c1.Cl` [Compound 45, Quinuclidin-4-ylmethyl 6-methyl-1H-indole-3-carboxylate hydrochloride], the half-life at 5 μM is 116 min.
`Cl.O=C(OCC12CCN(CC1)CC2)c1c[nH]c2cc(F)c(F)cc12` [Compound 51, Quinuclidin-4-ylmethyl 5,6-difluoro-1H-indole-3-carboxylate hydrochloride]: the half-life at 5 μM stood at 353 min.
Same read-out and setting: to `Cl.O=C(OCC12CCN(CC1)CC2)c1c[nH]c2cc(Cl)c(F)cc12` [Compound 52, Quinuclidin-4-ylmethyl 6-chloro-5-fluoro-1H-indole-3-carboxylate hydrochloride] belongs 533 min; to `O=C(OCC12CCN(CC1)CC2)c1c[nH]c2cc(O)cc(Br)c12` [Compound 53, quinuclidin-4-ylmethyl 4-bromo-6-hydroxy-1H-indole-3-carboxylate], 1870 min.

These data come from US20170166561A1, “QUINUCLIDINE COMPOUNDS FOR MODULATING ALPHA7-NICOTINIC ACETYLCHOLINE RECEPTOR ACTIVITY” (Alpharmagen, LLC, priority 2014, published 2017).
